Data from article PMC11425624, “Synthesis of Novel Cu(II), Co(II), Fe(II), and Ni(II) Hydrazone Metal Complexes as Potent Anticancer Agents: Spectroscopic, DFT, Molecular Docking, and MD Simulation Studies” (ACS Omega, 2024).

Assays:
HEK-293T = assay: MTT cytotoxic activity assay, HEK-293T cells, 72 h; type: cell-based; details: HEK-293T healthy human embryonic kidney cell line
Protocol: (§1) The complexes were tested in human lung cancer and normal embryonic kidney cell lines for 72 h.
Cytotoxic activity studies of compounds (L, L-Cu, L-Co, and L-Fe) were conducted according to the literature.[60] Human lung epithelial carcinoma cells (A549; ATCC CCL-185) and healthy human embryonic kidney cells (HEK-293T) were cultured in Dulbecco’s modified Eagle’s medium-high-glucose supplemented with 10% fetal bovine serum and 1% GlutaMAX in a CO2 incubator at 37 °C. Cells seeded in 96-well plates were exposed to 200, 100, 50, and 25 μM of compounds for 72 h. The MTT stock solution (50 μL, 5 mg/mL) was added to each well. Absorbance was measured using an Epoch 2 ELISA plate reader at 590 nm. The IC50 values were calculated using GraphPad Prism Software version 5.

A549 = assay: MTT cytotoxic activity assay, A549 cells, 72 h; type: cell-based, human; details: for IC50: A549 human lung cancer cell line, MTT
Protocol: as §1
The MTT stock solution (50 μL, 5 mg/mL) was added to each well. Absorbance was measured using an Epoch 2 ELISA plate reader at 590 nm. The IC50 values were calculated using GraphPad Prism Software version 5.

[1] = Dissolution in cytotoxicity assay medium (0.5% DMSO, DMEM); type: physicochemical
Source text: When the ligand and L-Cu were compared, the cytotoxic effect of L-Cu was almost 17 times more cytotoxic than that of the ligand, including 2-hydroxybenzylidene and 4-fluorobenzohydrazide groups. […] However, the effect of the other two metal complexes (L-Co and L-Fe) and the ligand used as the starting material on the growth of A549 cells was very low compared to that of the positive control drug.

[2] = A549, 50 μM concentration of compound, 72 h
[3] = A549, 200 μM concentration of compound, 72 h

Compound | IC50 (HEK-293T) | IC50 (A549; 72 h) | viability at 50 µM (A549; Homo sapiens, A549, 50 μM concentration of compound, 72 h, read-out: Cell viability) | viability at 200 µM (A549; Homo sapiens, A549, 200 μM concentration of compound, 72 h, read-out: Cell viability rate) | Cell viability (A549; [2]) | Cell viability rate (A549; [3]) | Effectiveness relative to cisplatin (A549; A549 cells) | Times more cytotoxic than the ligand (A549; L-Cu compared with ligand L) | Solubility in assay medium [1]
O=C(NN=Cc1ccccc1O)c1ccc(F)cc1 [L, 4-Fluoro-N′-(2-hydroxybenzylidene)benzohydrazide] | 18.2 µM | 36.7 µM | 44.9% | 8.51% | – | – | – | – | –
O=C(NN=Cc1ccccc1[O][Cu][O]c1ccccc1C=NNC(=O)c1ccc(F)cc1)c1ccc(F)cc1 [L-Cu] | 2.32 µM | 2.14 µM | – | – | 5.10% | 4.66% | approximately twice | ~17 times | –
O=C(NN=Cc1ccccc1[O][Fe][O]c1ccccc1C=NNC(=O)c1ccc(F)cc1)c1ccc(F)cc1 [L-Fe] | 69.2 µM | 78.8 µM | – | – | 92.96% | 5.72% | – | – | –
O.O=C(NN=Cc1ccccc1[O-])c1ccc(F)cc1.O=C(NN=Cc1ccccc1[O-])c1ccc(F)cc1.[Ni+2] [L-Ni] | – | – | – | – | – | – | – | – | not fully dissolved in 0.5% DMSO and was precipitated in DMEM
N.N.[Cl][Pt][Cl] [cisplatin, reference compound] | 2.62 µM | 4.23 µM | – | – | – | – | – | – | –
